The values below come from patent US20210070748A1, “INHIBITORS OF BRUTONS TYROSINE KINASE” (Pharmacyclics LLC, priority 2015, published 2021).

What all share (format): biochemical
One experiment deals with T1, JAK3 (Homo sapiens, UniProt P52333).
T1 sequence (P52333 1-1124): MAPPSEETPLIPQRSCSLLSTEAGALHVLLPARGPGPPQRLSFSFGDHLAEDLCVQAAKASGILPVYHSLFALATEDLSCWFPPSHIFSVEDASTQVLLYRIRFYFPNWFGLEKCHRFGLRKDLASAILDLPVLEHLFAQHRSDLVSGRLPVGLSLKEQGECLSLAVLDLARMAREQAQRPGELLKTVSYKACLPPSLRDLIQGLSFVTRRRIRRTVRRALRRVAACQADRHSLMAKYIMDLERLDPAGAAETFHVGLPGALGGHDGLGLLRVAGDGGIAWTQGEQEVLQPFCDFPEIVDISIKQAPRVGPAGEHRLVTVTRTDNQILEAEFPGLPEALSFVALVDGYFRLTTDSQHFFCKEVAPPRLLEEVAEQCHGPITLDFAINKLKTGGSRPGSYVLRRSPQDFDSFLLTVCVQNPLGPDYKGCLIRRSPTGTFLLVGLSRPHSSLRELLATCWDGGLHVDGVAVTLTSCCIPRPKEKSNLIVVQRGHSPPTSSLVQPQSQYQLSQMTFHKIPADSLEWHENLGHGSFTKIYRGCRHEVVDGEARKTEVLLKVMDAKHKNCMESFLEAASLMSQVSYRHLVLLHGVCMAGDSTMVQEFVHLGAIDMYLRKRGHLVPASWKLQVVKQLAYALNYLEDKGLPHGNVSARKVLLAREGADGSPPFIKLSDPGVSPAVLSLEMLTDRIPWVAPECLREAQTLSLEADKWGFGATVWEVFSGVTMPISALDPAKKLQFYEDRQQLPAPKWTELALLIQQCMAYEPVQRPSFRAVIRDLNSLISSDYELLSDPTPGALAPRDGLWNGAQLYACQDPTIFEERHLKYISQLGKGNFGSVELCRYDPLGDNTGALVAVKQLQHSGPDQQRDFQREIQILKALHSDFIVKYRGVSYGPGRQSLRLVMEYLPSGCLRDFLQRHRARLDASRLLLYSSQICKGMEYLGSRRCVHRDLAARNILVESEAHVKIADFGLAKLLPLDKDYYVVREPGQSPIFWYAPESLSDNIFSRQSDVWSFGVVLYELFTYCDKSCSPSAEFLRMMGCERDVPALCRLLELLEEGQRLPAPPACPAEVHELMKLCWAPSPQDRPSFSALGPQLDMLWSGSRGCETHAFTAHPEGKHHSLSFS
Nature of the experiment: Inhibition of a panel of kinases, in vitro HotSpot kinase assay: JAK3. To be noted: D-compounds panel data; 1 μM ATP; read-out: IC50 JAK3.

Another experiment addresses T2, TEC (Homo sapiens, UniProt P42680).
T2 sequence (P42680 1-631): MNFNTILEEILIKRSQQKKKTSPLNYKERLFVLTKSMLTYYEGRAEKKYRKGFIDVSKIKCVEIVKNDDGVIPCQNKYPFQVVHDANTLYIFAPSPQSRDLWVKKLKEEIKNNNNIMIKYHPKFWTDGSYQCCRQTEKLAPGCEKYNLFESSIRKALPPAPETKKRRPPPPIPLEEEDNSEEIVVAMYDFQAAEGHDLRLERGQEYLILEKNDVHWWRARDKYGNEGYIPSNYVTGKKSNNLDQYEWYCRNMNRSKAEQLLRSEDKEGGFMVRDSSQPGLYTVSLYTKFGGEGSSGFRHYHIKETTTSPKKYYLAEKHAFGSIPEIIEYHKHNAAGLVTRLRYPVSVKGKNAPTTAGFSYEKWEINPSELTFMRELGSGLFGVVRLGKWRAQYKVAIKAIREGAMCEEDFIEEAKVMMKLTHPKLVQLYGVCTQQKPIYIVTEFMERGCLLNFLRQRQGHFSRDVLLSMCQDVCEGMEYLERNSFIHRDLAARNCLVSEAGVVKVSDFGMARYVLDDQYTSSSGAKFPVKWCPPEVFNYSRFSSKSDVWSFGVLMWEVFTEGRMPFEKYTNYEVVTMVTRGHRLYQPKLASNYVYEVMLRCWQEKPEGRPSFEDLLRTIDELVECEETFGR
Nature of the experiment: Inhibition of a panel of kinases, in vitro HotSpot kinase assay: TEC. To be noted: D-compounds panel data; 1 μM ATP. Here is the method:
(§1) The degree of inhibition of a panel of kinases is determined using the in vitro HotSpot kinase assay (purified enzymes, ^33P-ATP, an appropriate substrate and 1 μM ATP).

In a further experiment the target is SRC (Homo sapiens, UniProt P12931). Nature of the experiment: Inhibition of a panel of kinases, in vitro HotSpot kinase assay: SRC. To be noted: D-compounds panel data; 1 μM ATP. Here is the method: as §1

Usually IC50 stands for the midpoint of a concentration-inhibition curve.

Structures are written as SMILES.

Chain of SRC (P12931 whole entry): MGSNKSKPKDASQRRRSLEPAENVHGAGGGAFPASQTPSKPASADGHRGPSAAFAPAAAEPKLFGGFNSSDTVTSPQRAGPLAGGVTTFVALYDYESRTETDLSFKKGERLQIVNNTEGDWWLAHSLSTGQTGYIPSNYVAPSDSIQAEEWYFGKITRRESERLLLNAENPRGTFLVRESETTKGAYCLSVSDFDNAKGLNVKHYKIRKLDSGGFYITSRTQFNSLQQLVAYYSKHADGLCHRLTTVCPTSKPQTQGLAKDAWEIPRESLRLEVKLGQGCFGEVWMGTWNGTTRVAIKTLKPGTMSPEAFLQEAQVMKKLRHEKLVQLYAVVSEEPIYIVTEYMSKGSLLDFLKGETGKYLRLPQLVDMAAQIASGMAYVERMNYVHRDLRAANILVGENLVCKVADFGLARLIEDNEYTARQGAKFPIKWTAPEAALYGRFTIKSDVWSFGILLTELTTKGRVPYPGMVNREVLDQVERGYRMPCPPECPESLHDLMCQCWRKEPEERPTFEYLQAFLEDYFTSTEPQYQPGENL

As for `C[C@@H]1[C@H](NC(=O)c2ccc(C3CC3)cc2F)CCCN1c1cnc(C(N)=O)c(Nc2ccc(C3(C)CCN(C4CC4)CC3)cc2)n1` [Example D-138, 5-[(2R,3R)-3-(4-cyclopropyl-2-fluorobenzamido)-2-methylpiperidin-1-yl]-3-{[4-(1-cyclopropyl-4-methylpiperidin-4-yl)phenyl]amino}pyrazine-2-carboxamide], the half-inhibitory concentration (IC50) was in the range of 0.01 to 0.1 µM on JAK3, 0.01 to 0.1 µM at TEC and 0.1 to 1 µM against SRC.

Consider `CN(C)c1ccc2c(=O)n([C@@H]3CCCN(c4cnc(C(N)=O)c(Nc5cnn(C)c5)n4)C3)ccc2c1` [Example D-155, 5-[(3R)-3-[6-(dimethylamino)-1-oxo-1,2-dihydroisoquinolin-2-yl]piperidin-1-yl]-3-[(1-methyl-1H-pyrazol-4-yl)amino]pyrazine-2-carboxamide], for which the IC50 fell in the range of 0.1 to 1 µM on JAK3, 0.01 to 0.1 µM against TEC and 0.1 to 1 µM at SRC.

As for `C[C@@H]1[C@H](NC(=O)c2ccc(C3CC3)cc2F)CCCN1c1cnc(C(N)=O)c(Nc2ccc(C3(C)CCN(C4CCC4)CC3)cc2)n1` [Example D-134, 3-{[4-(1-cyclobutyl-4-methylpiperidin-4-yl)phenyl]amino}-5-[(2R,3R)-3-(4-cyclopropyl-2-fluorobenzamido)-2-methylpiperidin-1-yl]pyrazine-2-carboxamide], the IC50 is 0.1 to 1 µM at JAK3, 0.01 to 0.1 µM against TEC and 0.01 to 0.1 µM on SRC.

As to `C[C@@H]1[C@H](NC(=O)c2ccc(C3CC3)cc2)CCCN1c1cnc(C(N)=O)c(Nc2cnn(C)c2)n1` [Example D-135, 5-[(2R,3R)-3-(4-cyclopropylbenzamido)-2-methylpiperidin-1-yl]-3-[(1-methyl-1H-pyrazol-4-yl)amino]pyrazine-2-carboxamide], the values for the IC50 on JAK3, against TEC and against SRC were 1 to 10 µM, 0.01 to 0.1 µM and 0.1 to 1 µM, respectively.

For `C[C@@H]1[C@H](NC(=O)c2ccc(C3CC3)cc2)CCCN1c1cnc(C(N)=O)c(Nc2ccc(OC3CCN(CC(F)(F)F)CC3)cc2)n1` [Example D-98, 5-[(2R,3R)-3-(4-cyclopropylbenzamido)-2-methylpiperidin-1-yl]-3-[(4-{[1-(2,2,2-trifluoroethyl)piperidin-4-yl]oxy}phenyl)amino]pyrazine-2-carboxamide], the half-inhibitory concentration (IC50) at JAK3 is 1 to 10 µM; at TEC, 0.1 to 1 µM; against SRC, above 10 µM.

On to `C[C@@H]1[C@H](NC(=O)c2ccc(C3CC3)cc2F)CCCN1c1cnc(C(N)=O)c(Nc2ccc(N3CCN(C)CC3)cn2)n1` [Example D-8, 5-[(2R,3R)-3-(4-cyclopropyl-2-fluorobenzamido)-2-methylpiperidin-1-yl]-3-{[5-(4-methylpiperazin-1-yl)pyridin-2-yl]amino}pyrazine-2-carboxamide], for which the IC50 on JAK3 is above 10 µM; at TEC, 1 to 10 µM; against SRC, above 10 µM.

On to `C[C@@H]1CC[C@H](NC(=O)N(C)C)CN1c1cnc(C(N)=O)c(Nc2cnn(C)c2)n1` [Example D-151, 5-[(2R,5S)-5-[(dimethylcarbamoyl)amino]-2-methylpiperidin-1-yl]-3-[(1-methyl-1H-pyrazol-4-yl)amino]pyrazine-2-carboxamide], for which the results for the IC50 on JAK3, against TEC and against SRC were above 10 µM, 0.01 to 0.1 µM and 0.1 to 1 µM, respectively.

As to `C[C@@H]1[C@H](NC(=O)c2ccc(C3CC3)cc2)CCCN1c1cnc(C(N)=O)c(Nc2ccc(OC3CCCN(C)C3)cc2)n1` (stereo partly drawn) [Example D-105, 5-[(2R,3R)-3-(4-cyclopropylbenzamido)-2-methylpiperidin-1-yl]-3-({4-[(1-methylpiperidin-3-yl)oxy]phenyl}amino)pyrazine-2-carboxamide], the IC50 on JAK3 is 0.1 to 1 µM; against TEC, at most 0.01 µM; against SRC, 0.01 to 0.1 µM.

Consider `Cn1cc(Nc2nc(N3CCCC4(C3)CN(c3ccc(C5CC5)cc3)C(=O)O4)cnc2C(N)=O)cn1` [Example D-147, 5-[3-(4-cyclopropylphenyl)-2-oxo-1-oxa-3,7-diazaspiro[4.5]decan-7-yl]-3-[(1-methyl-1H-pyrazol-4-yl)amino]pyrazine-2-carboxamide], for which the IC50 lay within 1 to 10 µM on JAK3, 0.1 to 1 µM against TEC and 0.1 to 1 µM on SRC.

As for `C[C@@H]1[C@H](NC(=O)c2ccc(OC(F)(F)F)cc2)CCCN1c1cnc(C(N)=O)c(Nc2cnn(C)c2)n1` [Example D-95, 3-[(1-methyl-1H-pyrazol-4-yl)amino]-5-[(2R,3R)-2-methyl-3-[4-(trifluoromethoxy)benzamido]piperidin-1-yl]pyrazine-2-carboxamide], the IC50 on JAK3 was 1 to 10 µM; against TEC, 0.01 to 0.1 µM; at SRC, 0.1 to 1 µM.

In the case of `C[C@H]1CC[C@@H](NC(=O)c2ccc(C(C)(C)O)cc2)CN1c1nnc(C(N)=O)c(Nc2cnn(C)c2)n1` [Example D-157, 3-[(2S,5R)-5-[4-(2-hydroxypropan-2-yl)benzamido]-2-methylpiperidin-1-yl]-5-[(1-methyl-1H-pyrazol-4-yl)amino]-1,2,4-triazine-6-carboxamide], the half-maximal inhibitory concentration (IC50) at JAK3 was 0.1 to 1 µM; against TEC, at most 0.01 µM; against SRC, 0.01 to 0.1 µM.

`C[C@@H]1[C@H](NC(=O)c2ccc(C3CC3)cc2F)CCCN1c1cnc(C(N)=O)c(Nc2ccc(S(=O)(=O)N3CCCC3)cc2)n1` [Example D-139, 5-[(2R,3R)-3-(4-cyclopropyl-2-fluorobenzamido)-2-methylpiperidin-1-yl]-3-{[4-(pyrrolidine-1-sulfonyl)phenyl]amino}pyrazine-2-carboxamide]: the results for the half-maximal inhibitory concentration (IC50) on JAK3, against TEC and at SRC were above 10 µM, 0.1 to 1 µM and above 10 µM, respectively.

Turning to `C[C@@H]1CC[C@@H](NC(=O)c2ccc(C3CC3)cc2)CN1c1cnc(C(N)=O)c(Nc2cnn(C)c2)n1` [Example D-143, 5-[(2R,5R)-5-(4-cyclopropylbenzamido)-2-methylpiperidin-1-yl]-3-[(1-methyl-1H-pyrazol-4-yl)amino]pyrazine-2-carboxamide], the half-inhibitory concentration (IC50) was above 10 µM at JAK3, 0.1 to 1 µM against TEC and 1 to 10 µM on SRC.

With `C[C@H]1CC[C@@H](NC(=O)c2ccc(C3CC3)cc2)CN1c1cnc(C(N)=O)c(Nc2cnn(C)c2)n1` [Example D-142, 5-[(2S,5R)-5-(4-cyclopropylbenzamido)-2-methylpiperidin-1-yl]-3-[(1-methyl-1H-pyrazol-4-yl)amino]pyrazine-2-carboxamide], the results for the IC50 at JAK3, against TEC and at SRC were 0.1 to 1 µM, 0.01 to 0.1 µM and 0.01 to 0.1 µM, respectively.

With `C[C@H]1CC[C@H](NC(=O)c2ccc(C3CC3)cc2)CN1c1cnc(C(N)=O)c(Nc2cnn(C)c2)n1` [Example D-144, 5-[(2S,5S)-5-(4-cyclopropylbenzamido)-2-methylpiperidin-1-yl]-3-[(1-methyl-1H-pyrazol-4-yl)amino]pyrazine-2-carboxamide], the IC50 was above 10 µM at JAK3, 1 to 10 µM against TEC and 1 to 10 µM against SRC.

`C[C@@H]1[C@H](NC(=O)c2ccc(C3CC3)cc2F)CCCN1c1cnc(C(N)=O)c(Nc2ccc(N3CCN(C)CC3=O)cc2)n1` [Example D-10, 5-[(2R,3R)-3-(4-cyclopropyl-2-fluorobenzamido)-2-methylpiperidin-1-yl]-3-{[4-(4-methyl-2-oxopiperazin-1-yl)phenyl]amino}pyrazine-2-carboxamide]: the IC50 at JAK3 was in the range of 1 to 10 µM; at TEC it was 0.01 to 0.1 µM; at SRC, 0.1 to 1 µM.
